According to patent US8772250B2, “Compositions and methods for treating ischemia and ischemia-reperfusion injury” (Ischemix, LLC, priority 2010, dated 2014):
Marks after values point to notes of the source that are not given here.

Assays:
Src = Src (Homo sapiens, UniProt P12931); assay: Src tyrosine kinase activation assay (mobility shift); assay type: biochemical
Source text: IGF1R and Src tyrosine kinases have endogenous levels of activity in the presence of ATP and substrate. This activity was readily measured using a mobility shift assay using a Caliper LabChip® 3000 and a 12-sipper LabChip® to detect both phosphorylated and unphosphorylated substrate (Caliper Life Sciences, Discovery Alliances and Services Division). Enzyme, substrate and ATP concentrations were optimized for each assay. For the IGF1R assay, the final concentrations of the enzyme, peptide and ATP were 20 nM, 1.5 μM, and 1220 μM, respectively. For the Src assay, the final concentrations of the enzyme, peptide and ATP were 2.5 nM, 1.5 μM, and 17 μM, respectively.
RLip-EA-OH was evaluated at multiple concentrations for an effect on activation of IGF1 receptor kinase (IGF1R) and Src. The compounds tested activated IGF1R and Src with different selectivities.

[1] = test system: myocardial ischemia-reperfusion injury; assay: Rat model of myocardial I/R injury (MI/AR ratio); assay type: in vivo; conditions: for % Reduction in MI/AR Compared to Vehicle: rat IV
insulin receptor kinase = target: T1, insulin receptor kinase (Homo sapiens, UniProt P06213); assay: IRK activation assay (mobility shift kinase assay); assay type: biochemical
T1 construct: insulin receptor kinase domain (Millipore catalog #14-466, 80 nM); purchased Millipore 14-466
T1 sequence (P06213 1023-1298 limits assumed): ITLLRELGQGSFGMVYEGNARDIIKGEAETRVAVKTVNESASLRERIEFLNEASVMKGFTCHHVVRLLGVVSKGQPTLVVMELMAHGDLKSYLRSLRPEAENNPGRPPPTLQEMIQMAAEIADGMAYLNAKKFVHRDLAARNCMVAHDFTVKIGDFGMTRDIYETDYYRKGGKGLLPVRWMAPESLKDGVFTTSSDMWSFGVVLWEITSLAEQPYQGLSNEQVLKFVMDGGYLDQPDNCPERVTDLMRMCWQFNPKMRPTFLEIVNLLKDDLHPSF
Source text: Insulin receptor kinase activity was readily measured by a mobility shift assay using a Caliper LabChip® 3000 and a 12-sipper LabChip® to detect both phosphorylated and unphosphorylated substrate (Caliper Life Sciences, Discovery Alliances and Services Division, Hanover, Md.). The mobility-shift kinase assay uses a micro fluidic chip to measure the conversion of a fluorescent peptide substrate to a phosphorylated product. The reaction mixture from a microtiter plate well was introduced through a capillary sipper onto the chip and the nonphosphorylated substrate and phosphorylated product were separated by electrophoresis and detected via laser-induced fluorescence. […] The catalytic subunits of tyrosine kinases have endogenous levels of activity in the presence of ATP and substrate, thus the results are presented as a % of control.
Specifically, each test compound was diluted to 25 times its assay concentration with 100% DMSO and added to 12 μL of an assay buffer solution (100 mM HEPES, 10 mM MnCl2, 5 mM B-GP, and 0.002% Brij) containing dithiotheritol (DTT, 2 mM) and insulin receptor kinase domain (Millipore catalog #14-466, 80 nM) prior to pre-incubation at room temperature for 15 minutes. […] The samples were placed on the LabChip 3000 to measure the amount of parent substrate and phosphorylated product. […]

[2] = Oxygen Radical Absorbance Capacity (ORAC) assay; conditions: mean of 3-4 experiments
Source text: Peroxyl radicals are one species of reactive oxygen produced by cells during reperfusion. The presence of peroxyl radicals can be detected by fluorescein oxidation. In the presence of peroxyl radicals, fluorescein fluorescence will decay over time. In the presence of an oxygen radical scavenger, the rate of decay is diminished. The change in the rate of decay between control and in the presence of scavengers is used to measure the peroxyl radical scavenging ability of a test compound.
Each compound tested was diluted to a concentration ranging from 25 μM to 250 μM in 10 mM phosphate buffer (pH=7.4) containing 10 nM fluorescein. The buffer and compound were incubated at 37° C. for 10 minutes. After the incubation, flourescein fluorescence was measured using a plate reader (Molecular Devices Flexstation II, Ex=485, Em=520). Baseline fluorescence measurements were recorded for 15 minutes before 2,2′-azobis(2-methylpropionamidine) dihydrochloride (AAPH) was added. The fluorescence decay was recorded for 90 minutes. The fluorescence decay without compound was subtracted from the fluorescence decay with compound. The slope of the decay vs. concentration is reported as the absorbance capacity.

CHO M1-WT3 cells = assay: Cytosolic calcium overload assay, carbachol stimulated; assay type: cell-based, Chinese hamster; conditions: 200 nM carbachol, variant concentrations
Source text: Cytosolic calcium increases in the CHO M1-WT3 cells when stimulated with carbachol ([Molecular Devices, FlexStation Application Note 2, Comparison of FLIPR® and FLEXstation™ for Calcium Mobilization Assays]) and may be detected with a fluorescent dye that binds calcium. An increase in fluorescence following carbachol stimulation is interpreted as an increase in cytosolic calcium. Chinese hamster ovary (CHO) cells were allowed to adhere to the bottom of a 96-well culture plate. The fluorescent dye and a test sample were placed on the plate and allowed to be taken up by the cells. The fluorescence level was measured every two seconds using a plate reader (Flexstation II, Molecular Devices, Sunnyvale Calif.). The cells were stimulated with carbachol and fluorescent data reported as the peak increase in fluorescence above baseline following carbachol stimulation. Data were normalized to the peak carbachol response in the control sample.
CHO cells from the cell line CHO-M1-WT3 were grown in Hams F12 medium supplemented with 10% FBS and 5 μg/mL G418 to maintain expression of the M1 muscarinic receptor. Cells were seeded the night before the experiment at a concentration of 30,000 cells/well in a volume of 100 μL per well of black walled, clear bottomed, 96-well microplates (“assay plates”). Cells were incubated at 37° C. and 5% CO2 overnight. […] The cells were placed into the FlexStation system to monitor fluorescence before and after the addition of 50 μL of 1 μM carbachol for a final concentration of 200 nM. Fluorescence was measured for 17 seconds prior to carbachol addition and 43 seconds following carbachol addition. The Fluo-4 dye was excited at a wavelength of 485 nm and emission measured at 525 nm. The Calcium-3 dye was excited at a wavelength of 494 nm and emission measured at 525 nm. The calcium response was reported as the peak fluorescence minus the baseline fluorescence calculated as the average of the fluorescence prior to carbachol addition.

Src, sequence (P12931 whole entry, species assumed): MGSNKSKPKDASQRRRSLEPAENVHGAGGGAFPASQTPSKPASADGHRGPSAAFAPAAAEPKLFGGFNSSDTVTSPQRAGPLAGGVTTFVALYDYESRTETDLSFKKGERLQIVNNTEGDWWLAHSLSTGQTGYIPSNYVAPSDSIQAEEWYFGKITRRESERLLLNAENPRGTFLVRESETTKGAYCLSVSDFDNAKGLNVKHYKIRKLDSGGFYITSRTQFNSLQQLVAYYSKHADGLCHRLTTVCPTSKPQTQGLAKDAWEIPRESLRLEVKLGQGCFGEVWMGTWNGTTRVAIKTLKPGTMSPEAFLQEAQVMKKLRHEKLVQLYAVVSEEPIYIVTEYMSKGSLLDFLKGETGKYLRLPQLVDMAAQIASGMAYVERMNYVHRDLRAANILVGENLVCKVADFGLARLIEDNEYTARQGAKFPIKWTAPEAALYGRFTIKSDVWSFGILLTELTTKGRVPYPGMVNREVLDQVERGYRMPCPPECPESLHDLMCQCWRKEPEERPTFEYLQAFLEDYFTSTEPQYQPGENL

Structure (SMILES): C[C@H](NC(=O)[C@H](CCC(=O)O)NC(=O)CCCC[C@@H]1CCSS1)C(=O)O [RLip-EA-OH, N-(R)-lipoyl-L-glutamyl-L- alanine]
- Src % activity above control (±SEM) (Src; 100 μM): 70 ± 1%
- Src % Increase in activity above vehicle control (Src; 300 μM): 78 ± 2%
- efficacy in a rat model of I/R injury ([1]; intravenously (bolus IV and infusion), orally and intra-cardiac): efficacious
- % Reduction in MI/AR Compared to Vehicle ([1]; Entry 1: 1 mg/kg at −0.25 h): 3%
- % Reduction in MI/AR Compared to Vehicle ([1]; Entry 2a: 3 mg/kg (bolus) at −0.25 h): 6%
- % Reduction in MI/AR Compared to Vehicle ([1]; Entry 3a: 5 mg/kg (bolus) at −0.25 h): 27* %
- % Reduction in MI/AR Compared to Vehicle ([1]; Entry 3b: 5 mg/kg (1 h infusion) at −1 h): 27* %
- % Reduction in MI/AR Compared to Vehicle ([1]; Entry 4a: 10 mg/kg (bolus) at −0.25 h): 33* %
- % Reduction in MI/AR Compared to Vehicle ([1]; Entry 4b: 10 mg/kg (1 h infusion)): 33* %
- % Reduction in MI/AR Compared to Vehicle ([1]; Entry 6: 20 mg/kg at −0.25 h): 9%
- % Reduction in MI/AR Compared to Vehicle ([1]; Entry 8: 10 mg/kg at −6 h): 24* %
- % Reduction in MI/AR Compared to Vehicle ([1]; Entry 9: 10 mg/kg at −24 h): 24* %
- % Reduction in MI/AR Compared to Vehicle ([1]; Entry 10: 20 mg/kg at −3 h): 26* %
- % Reduction in MI/AR Compared to Vehicle ([1]; Entry 11: 40 mg/kg at −3 h): 17%
- % Reduction in MI/AR Compared to Vehicle ([1]; Entry 14: 10 and 10 mg/kg at −24 and −3 h): 32* %
- % Reduction in MI/AR Compared to Vehicle ([1]; Entry 15: 10 and 10 and 10 mg/kg at −24 and −3 and −0.25 h): 42* %
- % Reduction in MI/AR Compared to Vehicle ([1]; Entry 17: 10 and 10 mg/kg at −3 h and at reperfusion): 34* %
- reduction of myocardial tissue death vs saline vehicle ([1]; rat, 1 mg/kg IC, 15 minutes pre-occlusion): 38%
- Reduction of MI:AR Ratio Relative to Vehicle (%) ([1]; rat, 1 mg/kg IC, Table 7 meta analysis): 31 ± 3 %
- Reduction of MI:AR Ratio Relative to Vehicle (%) ([1]; rat, 1 mg/kg IC, Table 8): 31 ± 3 %
- reduction of myocardial tissue death vs saline vehicle ([1]; rat, 1 mg/kg IC, at reperfusion (within 1 minute after reperfusion)): 32%
- reduction of myocardial tissue death vs saline vehicle ([1]; rat, 1 mg/kg IC, during occlusion (15 minutes after occluding)): 24%
- MI:AR ratio ([1]; rat, 1 mg/kg IC, meta analysis n=64): 0.250
- reduction of MI/AR vs saline vehicle ([1]; rat, 1 mg/kg IC, meta analysis n=64 vs n=54, p<0.001): 33%
- MI/AR ([1]; rat, 1 mg/kg single bolus IC 15 minutes prior to ischemia): 0.337
- MI/AR ([1]; rat, 2 mg/kg single bolus IC 15 minutes prior to ischemia): 0.290
- MI/AR (meta-analysis) ([1]; rat, B—Single (10_0)): 0.261
- MI/AR (meta-analysis) ([1]; rat, C—Multiple (10_10)): 0.207
- effect of different doses on myocardial tissue death (MI/AR) ([1]; rat, IV or IC, 15 minutes pre-occlusion): significantly (p<0.05) reduced myocardial tissue death and was dose dependent
- % Reduction in MI/AR compared to vehicle controls ([1]; rat, Table 11: 10 mg/kg at −0.25 h): 28%
- % Reduction in MI/AR compared to vehicle controls ([1]; rat, Table 11: 10 and 10 mg/kg at −3 and −0.25 h): 43* %
- reduction in MI damage ([1]; rat, single 10 mg/kg IV bolus 15 min before ischemia or at 3 h before ischemia): ~33%
- reduction of MI (meta-analysis) ([1]; rat, single bolus dose 10 mg/kg at −3 h): 29%
- AVG % activity above control (±SEM) (insulin receptor kinase; 100 μM): 78 ± 15%
- IRK % Increase in activity above vehicle control (insulin receptor kinase; 300 μM): 77 ± 7%
- ORAC Value relative to RLip-EA-OH [2]: 100 ± 11
- ORAC Value relative to RLip-OH [2]: 131 ± 6^
- effect on carbachol stimulated flux in cytosolic calcium (CHO M1-WT3 cells): diminished the flux in cytosolic calcium in a dose dependent manner
